Measured values: publication PMC12459614 (European journal of medicinal chemistry, 2025)

Legend:
hGPR17L [1] = biological target: T1, hGPR17L (Homo sapiens, UniProt Q13304); test: Calcium mobilization assay; format: cell-based; settings: for Emax: 1321-N1, read-out: % Efficacy Avg ± SEM; for IC50 / Calcium assay IC50(μM) Avg ± SEM: reported only when efficacy ≥75%; for antagonist activity at GPR17: data not shown
hGPR17L [2] = biological target: T1, hGPR17L; test: cAMP signaling in GLUTag cells expressing hGPR17L; format: cell-based; settings: for attenuation of MDL-mediated inhibition of forskolin-stimulated cAMP: 10 μM compound, 100 nM MDL, 10 μM forskolin
GPR17 = settings: cited from earlier work
hGPR17L [3] = biological target: T1, hGPR17L; test: GLP-1 secretion assay in GLUTag cells expressing hGPR17L; format: cell-based; settings: 10 μM compound; 6.3 μM MDL; 10 μM forskolin and 10 μM IBMX
hGPR17L [4] = biological target: T1, hGPR17L; test: cAMP accumulation HTRF assay; settings: cAMP accumulation assay
[5] = Calcium Assay IC50(μM) Avg ± SEM, Table 2
[6] = Calcium assay IC50(μM) Avg ± SEM, Table 3

T1 sequence (Q13304 whole entry): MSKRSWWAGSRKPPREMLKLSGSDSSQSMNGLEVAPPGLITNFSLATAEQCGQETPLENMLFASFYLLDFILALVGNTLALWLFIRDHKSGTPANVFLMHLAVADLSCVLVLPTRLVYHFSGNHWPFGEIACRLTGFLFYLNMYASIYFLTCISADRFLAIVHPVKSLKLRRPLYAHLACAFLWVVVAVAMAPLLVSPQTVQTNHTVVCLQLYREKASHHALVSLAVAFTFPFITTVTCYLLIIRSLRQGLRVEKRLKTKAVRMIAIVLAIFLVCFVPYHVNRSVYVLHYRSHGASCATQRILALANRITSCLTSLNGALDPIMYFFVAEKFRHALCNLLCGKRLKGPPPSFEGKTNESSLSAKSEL

## COc1ccc(C(=O)NC2CCCc3c2[nH]c2c(Cl)cccc32)cc1S(C)(=O)=O (stereo not shown) [Compd 5, N-(8-Chloro-2,3,4,9-tetrahydro-1H-carbazol-1-yl)-4-methoxy-3-(methylsulfonyl)benzamide]
hGPR17L [1]
  Emax: 50.6 ± 3.54%

## O=C(NC1CCCc2c1[nH]c1c(Cl)cccc21)c1ccc2c(c1)OCO2 (stereo not shown) [Compd 3, N-(8-Chloro-2,3,4,9-tetrahydro-1H-carbazol-1-yl)benzo[d][1,3]dioxole-5-carboxamide]
hGPR17L [1]
  Emax: 77.4 ± 3.46%
hGPR17L [1]; [5]
  IC50: 11.4 ± 0.59 µM

## CS(=O)(=O)c1ccc(C(=O)NC2CCCc3c2[nH]c2c(Cl)cccc32)cc1[N+](=O)[O-] (stereo not shown) [Compd 7, N-(8-Chloro-2,3,4,9-tetrahydro-1H-carbazol-1-yl)-4-(methylsulfonyl)-3-nitrobenzamide]
hGPR17L [1]
  Emax: 117 ± 6.08%
hGPR17L [1]; [5]
  IC50: 4.42 ± 0.34 µM

## CC(=O)Oc1cc2c(s1)CCN(C(C(=O)C1CC1)c1ccccc1F)C2 (stereo not shown) [prasugrel, reference compound]
hGPR17L [1]; calcium mobilization assay
  antagonist activity at GPR17: do not observe antagonist activity

## O=C(NC1CCCc2c1[nH]c1c(Cl)cccc21)c1ccc([N+](=O)[O-])c([N+](=O)[O-])c1 (stereo not shown) [Compd 8, N-(8-Chloro-2,3,4,9-tetrahydro-1H-carbazol-1-yl)-3,4-dinitrobenzamide]
hGPR17L [2]
  attenuation of MDL-mediated inhibition of forskolin-stimulated cAMP: significantly attenuated
hGPR17L [1]
  Emax: 74.1 ± 2.16%

## Clc1ccccc1CN1CCc2sccc2C1 [ticlopidine, reference compound]
hGPR17L [1]; calcium mobilization assay
  antagonist activity at GPR17: do not observe antagonist activity

## CCCSc1nc(N[C@@H]2C[C@H]2c2ccc(F)c(F)c2)c2nnn([C@@H]3C[C@H](OCCO)[C@@H](O)[C@H]3O)c2n1 [ticagrelor]
GPR17
  block of MDL-stimulated receptor activation: failed to block

## O=C(NC1CCCc2c1[nH]c1c(Cl)cccc21)C(NS(=O)(=O)c1cccs1)c1ccccc1 (stereo not shown) [Compd 14, N-(8-Chloro-2,3,4,9-tetrahydro-1H-carbazol-1-yl)-2-phenyl-2-(thiophene-2-sulfonamido)acetamide]
hGPR17L [1]
  Emax: 104 ± 9.32%
hGPR17L [1]; [5]
  IC50: 7.94 ± 0.49 µM

## O=C(O)c1ccc(C(=O)NC2CCCc3c2[nH]c2c(Cl)cccc32)cc1 (stereo not shown) [Compd 15, 4-((8-Chloro-2,3,4,9-tetrahydro-1H-carbazol-1-yl)carbamoyl)benzoic acid]
hGPR17L [2]
  attenuation of MDL-mediated inhibition of forskolin-stimulated cAMP: significantly attenuated
hGPR17L [1]
  Emax: 49.4 ± 2.45%
hGPR17L [3]
  attenuation of MDL-mediated inhibition of GLP-1 secretion: significantly attenuated

## CCCc1c(OCCCCc2nnn[nH]2)ccc(C(C)=O)c1O [tomelukast, reference compound]
hGPR17L [1]; calcium mobilization assay
  antagonist activity at GPR17: partial antagonist activity

## CN(C)C(=O)CCSC(SCCC(=O)O)c1cccc(/C=C/c2ccc3ccc(Cl)cc3n2)c1 (stereo not shown) [MK571, reference compound]
hGPR17L [1]; calcium mobilization assay
  antagonist activity at GPR17: no antagonist activity

## COc1ccc(C(=O)NC2CCCc3c2[nH]c2c(Br)cccc32)cc1OC (stereo not shown) [Compd 19, N-(8-Bromo-2,3,4,9-tetrahydro-1H-carbazol-1-yl)-3,4-dimethoxybenzamide]
hGPR17L [1]
  Emax: 125 ± 4.3%
hGPR17L [1]; [6]
  IC50: 4.29 ± 0.48 µM

## COc1ccc(C(=O)NC2CCCc3c2[nH]c2c(C)ccc(C)c32)cc1OC (stereo not shown) [Compd 23, N-(5,8-dimethyl-2,3,4,9-tetrahydro-1H-carbazol-1-yl)-3,4-dimethoxybenzamide]
hGPR17L [1]
  Emax: 83.7 ± 2.39%
hGPR17L [1]; [6]
  IC50: 11.8 ± 0.5 µM

## COc1ccc(C(=O)NC2CCCc3c2[nH]c2c(C(=O)O)cccc32)cc1OC (stereo not shown) [Compd 24, 1-(3,4-Dimethoxybenzamido)-2,3,4,9-tetrahydro-1H-carbazole-8-carboxylic acid]
hGPR17L [1]; Table 3
  Calcium assay IC50(μM) Avg ± SEM: inactive

## COc1cc(OC)cc(C(=O)NC2CCCc3c2[nH]c2c(Br)cccc32)c1 (stereo not shown) [Compd 20, N-(8-bromo-2,3,4,9-tetrahydro-1H-carbazol-1-yl)-3,5-dimethoxybenzamide]
hGPR17L [1]
  Emax: 55.5 ± 1.74%

## O=C(NC1CCCc2c1[nH]c1c(Cl)cccc21)c1c(F)cc([N+](=O)[O-])cc1F (stereo not shown) [Compd 12, N-(8-chloro-2,3,4,9-tetrahydro-1H-carbazol-1-yl)-2,6-difluoro-4-nitrobenzamide]
hGPR17L [1]
  Emax: 44.3 ± 3.47%

## COc1ccc(C(=O)NC2CCCc3c2[nH]c2c(Cl)cccc32)cc1C (stereo not shown) [Compd 4, N-(8-Chloro-2,3,4,9-tetrahydro-1H-carbazol-1-yl)-4-methoxy-3-methylbenzamide]
hGPR17L [1]
  Emax: 81.5 ± 1.23%
hGPR17L [1]; [5]
  IC50: 10.7 ± 0.29 µM

## C=C[C@@]1(C)CC(=O)[C@]2(O)[C@@]3(C)[C@@H](O)CCC(C)(C)[C@@H]3[C@H](O)[C@H](OC(C)=O)[C@@]2(C)O1 [Forskolin, forskolin, reference compound]
hGPR17L [2]; forskolin alone, basal 0.59 ± 0.04 nM
  cAMP levels after forskolin stimulation: 4.7 ± 0.36 nM

## COc1ccc(C(=O)NC2CCCc3c2[nH]c2ccccc32)cc1OC (stereo not shown) [Compd 18, 3,4-Dimethoxy-N-(2,3,4,9-tetrahydro-1H-carbazol-1-yl)benzamide]
hGPR17L [1]
  Emax: 72.1 ± 4.2%
hGPR17L [1]; [6]
  IC50: 9.44 ± 1.25 µM

## COc1ccc(C(=O)NC2CCCc3c2[nH]c2c(C)cc(C)cc32)cc1OC (stereo not shown) [Compd 21, N-(6,8-Dimethyl-2,3,4,9-tetrahydro-1H-carbazol-1-yl)-3,4-dimethoxybenzamide]
hGPR17L [2]
  attenuation of MDL-mediated inhibition of forskolin-stimulated cAMP: significantly attenuated
hGPR17L [1]
  Emax: 87.5 ± 0.92%
hGPR17L [1]; [6]
  IC50: 12.2 ± 0.5 µM

## Cc1cc(C(=O)NC2CCCc3c2[nH]c2c(Cl)cccc32)ccc1Br (stereo not shown) [Compd 10, 4-Bromo-N-(8-chloro-2,3,4,9-tetrahydro-1H-carbazol-1-yl)-3-methylbenzamide]
hGPR17L [1]
  Emax: 52.8 ± 2.26%

## CS(=O)(=O)c1ccc(C(=O)NC2CCCc3c2[nH]c2c(Cl)cccc32)cc1F (stereo not shown) [Compd 6, N-(8-Chloro-2,3,4,9-tetrahydro-1H-carbazol-1-yl)-3-fluoro-4-(methylsulfonyl)benzamide]
hGPR17L [1]
  Emax: 38 ± 2.73%

## O=C(O)c1ccc(OCCCc2ccc(OCCCCOc3ccccc3)cc2)c(C(=O)NC2CCCC(C(=O)O)C2)c1 (stereo not shown) [BayCysLT2, reference compound]
hGPR17L [1]; calcium mobilization assay
  antagonist activity at GPR17: full antagonist activity
GPR17
  block of MDL-stimulated receptor activation of GPR17: completely

## COc1cc(C(=O)NS(=O)(=O)c2ccccc2C)ccc1Cc1cn(C)c2ccc(NC(=O)OC3CCCC3)cc12 [zafirlukast, reference compound]
hGPR17L [1]; calcium mobilization assay
  antagonist activity at GPR17: full antagonist activity

## COC(=O)[C@H](c1ccccc1Cl)N1CCc2sccc2C1 [clopidogrel, reference compound]
hGPR17L [1]; calcium mobilization assay
  antagonist activity at GPR17: do not observe antagonist activity

## Cc1cc([N+](=O)[O-])ccc1C(=O)NC1CCCc2c1[nH]c1c(Cl)cccc21 (stereo not shown) [Compd 11, N-(8-Chloro-2,3,4,9-tetrahydro-1H-carbazol-1-yl)-2-methyl-4-nitrobenzamide]
hGPR17L [1]
  Emax: 29.8 ± 1.21%

## COc1cc(C(=O)NC2CCCc3c2[nH]c2c(Cl)cccc32)ccc1F (stereo not shown) [Compd 9, N-(8-Chloro-2,3,4,9-tetrahydro-1H-carbazol-1-yl)-4-fluoro-3-methoxybenzamide]
hGPR17L [1]
  Emax: 90.3 ± 7.04%
hGPR17L [1]; [5]
  IC50: 12.6 ± 0.89 µM

## COc1cc(C(=O)NC2CCCc3c2[nH]c2c(Cl)cccc32)cc(OC)c1OC (stereo not shown) [Compd 2, N-(8-Chloro-2,3,4,9-tetrahydro-1H-carbazol-1-yl)-3,4,5-trimethoxybenzamide]
hGPR17L [1]
  Emax: 47.4 ± 3.11%

## COc1ccc(C(=O)NC2CCCc3c2[nH]c2ccc(C(=O)O)cc32)cc1OC (stereo not shown) [Compd 26, 1-(3,4-Dimethoxybenzamido)-2,3,4,9-tetrahydro-1H-carbazole-6-carboxylic acid]
hGPR17L [1]; Table 3
  Calcium assay IC50(μM) Avg ± SEM: inactive

## CC(C)(O)c1ccccc1CC[C@@H](SCC1(CC(=O)O)CC1)c1cccc(/C=C/c2ccc3ccc(Cl)cc3n2)c1 [montelukast, reference compound]
hGPR17L [1]; calcium mobilization assay
  antagonist activity at GPR17: partial antagonist activity
GPR17
  block of MDL-stimulated receptor activation of GPR17: partially

## COc1cc(OC)cc(C(=O)NC2CCCc3c2[nH]c2c(C)cc(C)cc32)c1 (stereo not shown) [Compd 22, N-(6,8-Dimethyl-2,3,4,9-tetrahydro-1H-carbazol-1-yl)-3,5-dimethoxybenzamide]
hGPR17L [1]
  Emax: 68.2 ± 1.59%

## O=C(NC1CCCc2c1[nH]c1c(Cl)cccc21)c1ccc(F)c([N+](=O)[O-])c1 (stereo not shown) [Compd 13, N-(8-chloro-2,3,4,9-tetrahydro-1H-carbazol-1-yl)-4-fluoro-3-nitrobenzamide]
hGPR17L [1]
  Emax: 101 ± 9.98%
hGPR17L [1]; [5]
  IC50: 11.6 ± 1.19 µM

## CSCCNc1nc(SCCC(F)(F)F)nc2c1ncn2[C@@H]1O[C@H](COP(=O)(O)OP(=O)(O)C(Cl)(Cl)P(=O)(O)O)[C@@H](O)[C@H]1O [cangrelor]
GPR17
  block of MDL-stimulated receptor activation: failed to block

## O=C(NC1CCCc2c1[nH]c1c(Cl)cccc21)c1ccc(Br)cc1 (stereo not shown) [Compd 16, 4-Bromo-N-(8-chloro-2,3,4,9-tetrahydro-1H-carbazol-1-yl)benzamide]
hGPR17L [1]
  Emax: 40.4 ± 4.47%

## COc1cccc(-c2ccccc2-c2ccc(C(=O)Nc3ccc(OC)cc3C(=O)O)o2)c1 [PSB-22269]
GPR17
  potency in a binding assay and functional assays: nanomolar range potency

## COc1ccc(C(=O)NC2CCCc3c2[nH]c2cc(C(=O)O)ccc32)cc1OC (stereo not shown) [Compd 25, 1-(3,4-Dimethoxybenzamido)-2,3,4,9-tetrahydro-1H-carbazole-7-carboxylic acid]
hGPR17L [1]; Table 3
  Calcium assay IC50(μM) Avg ± SEM: inactive

## CC(C)[C@@H](O)CC[C@@H](C)[C@H]1CC[C@H]2[C@@H]3CC=C4C[C@@H](O)CC[C@]4(C)[C@H]3CC[C@]12C [24S-HC, 24(S)-hydroxycholesterol, reference compound]
hGPR17L [4]
  activation of GPR17 or potentiation of MDL: not able to confirm
hGPR17L [1]; calcium mobilization assay
  activation of GPR17 or potentiation of MDL: not able to confirm

## Cc1ccc(C(=O)NC2CCCc3c2[nH]c2c(Cl)cccc32)cc1 (stereo not shown) [Compd 17, N-(8-chloro-2,3,4,9-tetrahydro-1H-carbazol-1-yl)-4-methylbenzamide]
hGPR17L [1]
  Emax: 62.6 ± 4.84%
